Source: patent US20170326106A1, “TREATMENT OF AGE RELATED MACULAR DEGENERATION WITH A SMALL ACTIVE CHOROIDAL NEOVASCULARIZATION LESION” (BAYER HEALTHCARE LLC, priority 2014, published 2017)

Legend:
Type in all cases: in vivo, human
[1] = test system: Chinese subjects with age-related neovascular or wet age-related macular degeneration; experiment: Randomized double-blind clinical study, BCVA of the study eye by ETDRS
Description: (§1) A total of 304 Chinese subjects with age-related neovascular or wet age-related macular degeneration were enrolled in a randomized, double-blind clinical study to assess the efficacy of intravitreal (IVT) administrated aflibercept compared with V®-PDT on the mean change in BCVA (Best corrected visual acuity) from baseline to Week 28. BCVA of the study eye was assessed according to the standard procedures developed for the ETDRS (Early Treatment Diabetic Retinopathy Study) adapted for Age Related Eye Disease Study (AREDS). The key inclusion criteria were as follows: • Signed and dated written ICF. • Men and women ≧50 years of age. • Active predominantly classic, subfoveal choroidal neovascularization (CNV) lesions secondary to AMD, including juxtafoveal lesions that affect the fovea, as evidenced by fluorescein angiography (FA), in the study eye. • The area of the CNV had to occupy at least 50% of the total lesion. • ETDRS best corrected visual acuity (BCVA) of 73 to 25 letters in the study eye (Snellen activity equivalent of 20/40 to 20/320 in the study eye).
(§2) The following key exclusion criteria applied for the study eye: • Total lesion size is greater than 12 disc areas (30.5 mm^2, including blood, scars and neovascularization), as assessed by FA • Sub-retinal hemorrhages that is >50% of the total lesion area, or if the blood is under the fovea and is 1 or more disc areas in size. (If the blood is under the fovea, then the fovea must be surrounded by 270 degrees by visible CNV.) • Presence of CNV with an origin other than wAMD. History or clinical evidence of diabetic retinopathy, diabetic macular edema or any retinal vascular disease other than wAMD. Particular attention should be made to exclude subjects with polypoidal choroidal vasculopathy (PCV). • Presence of scar, fibrosis, or atrophy involving the center of the fovea that indicates substantial irreversible vision loss. • Presence of retinal pigment epithelial tears or rips involving the macula.
Eligible patients were randomized 3:1 to receive aflibercept (VTE) 2Q8 or V®-PDT (228 VTE+76 PDT). 194 patients with active CNV lesions >=50% (147 VTE2Q8+47 PDT) and 106 patients with active CNV lesions <50% (78 VTE2Q8+28 PDT) were included. The lesion size was determined by a central reading center based on the MPS protocol [Macular Photocoagulation Study Group, Arch Ophthalmol 1991, 109:1242-1257]. The active CNV size, the area of CNV (mm^2) as well as the total lesion size was measured using the FA. The central retinal thickness was determined by optical coherence tomography. In the VTE2Q8 group patients were treated with 2 mg (0.05 mL) aflibercept administered intravitreally at baseline, week 4, 8, 16, 24, 32, 40 and 48. In the PDT group V®-PDT was performed at baseline and potential PDT retreatment according to the guidelines for the use of PDT treatment in wAMD [Verteporfin Roundtable Participants, Retina. 2005; 25(2):119-34] were performed at week 12 and 24. At Week 28, after assessment of the primary and secondary endpoints, subjects in the PDT→VEGF Trap-Eye group received an IVT injection of 2.0 mg VEGF Trap-Eye, followed by additional 2.0 mg VEGF Trap-Eye injections at Weeks 32, 36, 40, and 48.

[2] = test system: Chinese subjects with age-related neovascular or wet age-related macular degeneration; experiment: Same clinical study, CNV lesion size by fluorescein angiography (MPS protocol)
Description: as §1, §2
(§3) Eligible patients were randomized 3:1 to receive aflibercept (VTE) 2Q8 or V®-PDT (228 VTE+76 PDT). 194 patients with active CNV lesions >=50% (147 VTE2Q8+47 PDT) and 106 patients with active CNV lesions <50% (78 VTE2Q8+28 PDT) were included. The lesion size was determined by a central reading center based on the MPS protocol [Macular Photocoagulation Study Group, Arch Ophthalmol 1991, 109:1242-1257]. The active CNV size, the area of CNV (mm^2) as well as the total lesion size was measured using the FA. The central retinal thickness was determined by optical coherence tomography. In the VTE2Q8 group patients were treated with 2 mg (0.05 mL) aflibercept administered intravitreally at baseline, week 4, 8, 16, 24, 32, 40 and 48. […]

[3] = test system: Chinese subjects with age-related neovascular or wet age-related macular degeneration; experiment: Same clinical study, central retinal thickness by optical coherence tomography
Description: as §1, §2, §3

[4] = active CNV lesion <50%, week 28
[5] = active CNV lesion <50%, week 52, PDT group on VEGF Trap-Eye from week 28
[6] = active CNV lesion >=50%, week 28
[7] = active CNV lesion >=50%, week 52, PDT group on VEGF Trap-Eye from week 28

## Aflibercept [VTE2Q8]
[1]; active CNV lesion <50% of total lesion size, week 28, from baseline
  Mean change of BCVA: 16.7 letters
[1]; active CNV lesion <50% of total lesion size, week 28, from baseline, listed as aflibercept
  Mean change of BCVA: 16.7 (−21 to 59) letters
[1]; active CNV lesion <50% of total lesion size, week 52, from baseline, PDT group received IVT 2.0 mg VEGF Trap-Eye from week 28
  Mean change of BCVA: 18.1 letters
[1]; [4]
  Proportion of patients who gained 5 or more letters: 85.9%
  Proportion of patients who gained 10 or more letters: 73.1%
  Proportion of patients who gained 15 or more letters: 57.7%
  Proportion of patients who lost 5 or more letters: 5.1%
  Proportion of patients who lost 10 or more letters: 3.8%
  Proportion of patients who lost 15 or more letters: 2.6%
  Proportion of patients who maintained vision (letter loss <15 letters): 97.4%
[1]; [5]
  Proportion of patients who gained 5 or more letters: 88.5%
  Proportion of patients who gained 10 or more letters: 78.2%
  Proportion of patients who gained 15 or more letters: 69.2%
  Proportion of patients who lost 5 or more letters: 6.4%
  Proportion of patients who lost 10 or more letters: 3.8%
  Proportion of patients who lost 15 or more letters: 3.8%
  Proportion of patients who maintained vision (letter loss <15 letters): 96.2%
[1]; active CNV lesion >=50% of total lesion size, week 28, from baseline
  Mean change of BCVA: 12.7 letters
[1]; active CNV lesion >=50% of total lesion size, week 28, from baseline, listed as aflibercept
  Mean change of BCVA: 12.7 (−29 to 40) letters
[1]; active CNV lesion >=50% of total lesion size, week 52, from baseline, PDT group received IVT 2.0 mg VEGF Trap-Eye from week 28
  Mean change of BCVA: 14.0 letters
[1]; [6]
  Proportion of patients who gained 5 or more letters: 77.6%
  Proportion of patients who gained 10 or more letters: 66.7%
  Proportion of patients who gained 15 or more letters: 45.6%
  Proportion of patients who lost 5 or more letters: 6.8%
  Proportion of patients who lost 10 or more letters: 2.7%
  Proportion of patients who lost 15 or more letters: 0.7%
  Proportion of patients who maintained vision (letter loss <15 letters): 99.3%
[1]; [7]
  Proportion of patients who gained 5 or more letters: 78.9%
  Proportion of patients who gained 10 or more letters: 67.3%
  Proportion of patients who gained 15 or more letters: 53.1%
  Proportion of patients who lost 5 or more letters: 8.2%
  Proportion of patients who lost 10 or more letters: 4.1%
  Proportion of patients who lost 15 or more letters: 2.0%
  Proportion of patients who maintained vision (letter loss <15 letters): 98.0%
[1]; whole study population irrespective of the active CNV lesion size, week 28, range in brackets
  mean change from baseline BCVA letter score: 14.0 (−29 to 59)
[2]; [4]
  Mean change in CNV lesion size: −0.688 mm^2
[2]; [5]
  Mean change in CNV lesion size: −0.688 mm^2
[2]; [6]
  Mean change in CNV lesion size: −1.009 mm^2
[2]; [7]
  Mean change in CNV lesion size: −1.173 mm^2
[3]; [4]
  Mean change in central retinal thickness: −180.6 um
[3]; [5]
  Mean change in central retinal thickness: −185.5 um
[3]; [6]
  Mean change in central retinal thickness: −180.4 um
[3]; [7]
  Mean change in central retinal thickness: −192.1 um
